According to the supplement of paper PMC10307832:

What was measured:
Assay in all cases: relative viability (nuclei count vs DMSO), 5 days (fraction); higher = more cells survive
Dabrafenib + Linsitinib = compound: CC(C)(C)c1nc(-c2cccc(NS(=O)(=O)c3c(F)cccc3F)c2F)c(-c2ccnc(N)n2)s1 [Dabrafenib] + C[C@]1(O)C[C@@H](c2nc(-c3ccc4ccc(-c5ccccc5)nc4c3)c3c(N)nccn32)C1 [Linsitinib] (partner 1 µM)
Summary of the method: (§1)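 Medians of duplicate plates are given as relative viability. That measure is the nuclei count in treated wells divided by the count in vehicle wells. Counts were taken on 4× images of lung cancer cell lines in 1536-well plates, 5 days after pin-tool dosing the day after seeding with one drug alone or a fixed anchor-drug dose plus five library-drug doses (not always all listed) in √10 steps.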

Dabrafenib + Crizotinib = compound: CC(C)(C)c1nc(-c2cccc(NS(=O)(=O)c3c(F)cccc3F)c2F)c(-c2ccnc(N)n2)s1 [Dabrafenib] + C[C@@H](Oc1cc(-c2cnn(C3CCNCC3)c2)cnc1N)c1c(Cl)ccc(F)c1Cl [Crizotinib] (partner 1 µM)
Summary of the method: as §1

Dabrafenib + Foretinib = compound: CC(C)(C)c1nc(-c2cccc(NS(=O)(=O)c3c(F)cccc3F)c2F)c(-c2ccnc(N)n2)s1 [Dabrafenib] + COc1cc2c(Oc3ccc(NC(=O)C4(C(=O)Nc5ccc(F)cc5)CC4)cc3F)ccnc2cc1OCCCN1CCOCC1 [Foretinib] (partner 0.25 µM)
Summary of the method: as §1

VX-702 + Pictilisib = compound: NC(=O)c1ccc(N(C(N)=O)c2c(F)cccc2F)nc1-c1ccc(F)cc1F [VX-702] + CS(=O)(=O)N1CCN(Cc2cc3nc(-c4cccc5[nH]ncc45)nc(N4CCOCC4)c3s2)CC1 [Pictilisib] (partner 1 µM)
Summary of the method: as §1

Cell Line | relative viability (Dabrafenib + Linsitinib; first compound 0.009487 µM) | relative viability (Dabrafenib + Linsitinib; first compound 0.03 µM) | relative viability (Dabrafenib + Linsitinib; first compound 0.09487 µM) | relative viability (Dabrafenib + Linsitinib; first compound 0.3 µM) | relative viability (Dabrafenib + Crizotinib; first compound 0.009487 µM) | relative viability (Dabrafenib + Crizotinib; first compound 0.03 µM) | relative viability (Dabrafenib + Crizotinib; first compound 0.09487 µM) | relative viability (Dabrafenib + Crizotinib; first compound 0.3 µM) | relative viability (Dabrafenib + Foretinib; first compound 0.003 µM) | relative viability (Dabrafenib + Foretinib; first compound 0.009487 µM) | relative viability (Dabrafenib + Foretinib; first compound 0.03 µM) | relative viability (Dabrafenib + Foretinib; first compound 0.09487 µM) | relative viability (Dabrafenib + Foretinib; first compound 0.3 µM) | relative viability (VX-702 + Pictilisib; first compound 0.02 µM) | relative viability (VX-702 + Pictilisib; first compound 0.2 µM) | relative viability (VX-702 + Pictilisib; first compound 0.6325 µM) | relative viability (VX-702 + Pictilisib; first compound 2 µM) | relative viability (Dabrafenib + Linsitinib; first compound 0.003 µM) | relative viability (Dabrafenib + Crizotinib; first compound 0.003 µM)
NCI-H358 | 1.03 | 0.705 | 0.813 | 0.776 | 0.662 | 0.553 | 0.631 | 0.476 | 0.662 | 0.862 | 0.815 | 0.771 | 0.76 | 0.352 | 0.343 | 0.301 | 0.323 |  | 
NCI-H441 | 0.48 | 0.54 | 0.32 | 0.383 | 0.746 | 0.694 | 0.593 | 0.697 |  | 1.11 | 0.941 | 1.05 | 0.843 | 0.503 | 0.492 | 0.352 | 0.494 |  | 
NCI-H460 | 0.952 | 0.68 | 0.757 | 0.826 | 0.97 | 0.892 | 0.842 | 0.899 | 0.949 | 1.01 | 0.961 | 0.933 | 0.993 | 0.361 | 0.153 | 0.295 | 0.257 | 0.84 | 0.865
NCI-H520 | 0.93 | 0.741 | 0.853 | 1.05 | 0.752 | 0.732 | 0.582 | 0.664 | 0.909 | 0.78 | 0.455 | 0.74 | 0.661 | 0.282 | 0.216 | 0.25 | 0.306 | 1.01 | 0.756
NCI-H596 | 1.14 | 0.796 | 1.08 | 1.14 | 1.06 | 0.86 | 0.954 | 0.932 |  | 0.928 | 0.575 | 0.686 | 0.861 | 0.398 | 0.246 | 0.392 | 0.389 | 1 | 1.48
NCI-H647 | 1.04 | 1.21 | 1.17 | 1.01 | 1.05 | 1.04 | 0.976 | 1.04 | 1.35 | 1.16 | 1.01 | 1.05 | 1.38 | 0.479 | 0.432 | 0.461 | 0.644 |  | 
NCI-H650 | 1.27 | 0.769 | 0.43 | 0.516 | 0.715 | 0.657 | 0.515 | 0.551 |  | 0.959 | 0.793 | 0.734 | 0.585 | 0.745 |  | 0.821 | 1.05 |  | 
NCI-H661 | 0.594 | 0.375 | 0.521 | 0.52 | 0.958 |  | 0.96 | 1.04 | 1.01 | 0.983 | 0.97 | 1.01 | 1.01 | 0.395 | 0.458 | 0.426 | 0.421 | 0.501 | 1.07
NCI-H727 | 0.312 | 0.29 | 0.367 | 0.465 | 1.01 | 0.791 | 0.909 | 0.84 |  | 0.886 | 0.601 | 0.947 | 1.1 | 0.343 | 0.302 | 0.382 | 0.356 |  | 
NCI-H838 | 1.04 | 0.95 | 0.97 | 1.08 | 0.905 | 0.759 | 0.829 | 0.979 | 1 | 1.06 | 0.801 | 0.923 | 1.1 | 0.467 | 0.408 | 0.517 | 0.47 | 0.994 | 0.858
NCI-H1299 | 0.959 | 0.798 | 0.743 | 0.625 | 0.91 | 0.961 | 0.882 | 0.806 | 1.05 | 1.09 | 1.07 | 1.03 | 1.08 | 0.802 | 0.65 | 0.554 | 0.547 | 0.941 | 1.01
NCI-H1355 | 0.858 | 0.682 |  | 0.823 | 1.05 | 0.927 |  | 1.03 |  | 0.981 | 0.935 | 0.809 | 0.947 | 0.514 | 0.439 | 0.338 | 0.46 |  | 
NCI-H1437 | 0.989 | 1.07 | 0.974 | 1.07 | 0.902 | 0.906 | 0.896 | 0.978 | 1.26 | 1.27 | 1.25 | 1.23 | 1.26 | 0.499 | 0.428 | 0.446 | 0.53 | 1.03 | 0.935
NCI-H1563 | 1.18 | 1.16 | 1.2 | 1.39 | 0.933 | 0.868 | 0.908 | 0.953 | 0.856 | 0.981 | 0.824 | 1.04 | 1.01 | 0.685 | 0.626 | 0.594 | 0.625 | 1.16 | 0.865
NCI-H1651 | 1.01 | 0.833 | 0.971 | 0.989 | 0.875 | 0.859 | 0.785 | 0.786 | 0.725 | 0.728 | 0.631 | 0.799 | 0.761 | 0.649 | 0.645 | 0.668 | 0.57 | 0.962 | 0.85
NCI-H1666 |  | 0.846 | 1.03 | 0.931 |  | 1.09 | 0.87 | 1.17 | 0.907 | 0.944 | 0.951 | 0.969 | 1.1 | 0.513 | 0.439 | 0.454 | 0.263 | 0.841 | 0.988
NCI-H1703 | 1.12 | 0.75 | 0.834 | 1.18 | 0.76 | 0.584 | 0.609 | 0.729 | 0.354 | 0.327 | 0.34 | 0.334 | 0.447 | 0.229 | 0.277 | 0.218 | 0.263 | 0.335 | 1.09
NCI-H1734 | 0.924 | 0.602 | 0.701 | 0.893 | 0.702 | 0.475 | 0.696 | 0.687 |  | 0.963 | 0.73 | 0.811 | 0.965 | 0.516 | 0.388 | 0.388 | 0.346 |  | 
